Assay results published in ChEMBL document CHEMBL1147599 (Bioorg Med Chem Lett, 2004).

molecular target: T1, Neuropeptide Y receptor type 2 (Homo sapiens, UniProt P49146); experiment: Binding affinity towards the NPY Y2 receptor
T1 sequence (P49146 whole entry): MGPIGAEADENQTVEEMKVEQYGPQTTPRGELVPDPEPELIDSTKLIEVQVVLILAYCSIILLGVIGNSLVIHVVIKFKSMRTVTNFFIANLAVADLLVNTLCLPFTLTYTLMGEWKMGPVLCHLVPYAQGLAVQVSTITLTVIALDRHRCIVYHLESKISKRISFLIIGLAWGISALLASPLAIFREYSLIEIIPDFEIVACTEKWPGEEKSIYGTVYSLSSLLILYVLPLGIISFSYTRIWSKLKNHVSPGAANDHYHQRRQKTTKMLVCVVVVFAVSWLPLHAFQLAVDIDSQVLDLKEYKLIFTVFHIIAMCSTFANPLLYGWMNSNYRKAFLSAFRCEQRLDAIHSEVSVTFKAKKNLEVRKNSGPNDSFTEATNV

Compound	IC50 [µM]
CC(=O)N1CCc2ccc(N(C/C=C/c3ccccc3)C3CCN(Cc4ccccc4)CC3)cc21	30
CC(=O)N1CCc2ccc(N(C(=O)/C=C/c3ccccc3)C3CCN(Cc4ccccc4)C3)cc21 (stereo not drawn)	17.5
CC(=O)N1CCc2ccc(N(C3CCN(Cc4ccccc4)CC3)S(=O)(=O)/C=C/c3ccccc3)cc21	30
